Source: patent US20090069356A1, “USE OF ANILINOPYRIMIDINES IN WOOD PROTECTION” (priority 2004, published 2009)
In brackets after ≈: the same amount, converted by molar mass.

Columns and labels:
[1] = tested on: Aspergillus niger and A. carbonarius; details: vineyards; Tjamos et al., Journal of Phytopathology (2004); cited from earlier work
[2] = tested on: Aureobasidium pullulans P 268 (Ap1); assay: Poison plate assay; assay type: cell-based; details: 168 h, evaluated after one week
[3] = tested on: Humicola grisea MG 28; assay: Stick test on treated Scots Pine; assay type: cell-based; details: 3 weeks exposure
Description: (§1) [table] […] GA medium was used as a less nutrient-rich alternative to PDA, in order to prevent the test fungi from bypassing the specific mode of action of anilinopyrimidines like cyprodinil, pyrimethanil and […].

[4] = tested on: Aureobasidium pullulans P 268; assay: Stick test on treated Scots Pine; assay type: cell-based; details: 3 weeks exposure
Description: as §1

[5] = tested on: Trichoderma viride CBS 189.79; assay: Stick test on treated Scots Pine; assay type: cell-based; details: 3 weeks exposure
Description: as §1

[6] = tested on: Trichoderma sp. isol. MB test; assay: Stick test on treated Scots Pine; assay type: cell-based; details: 3 weeks exposure
Description: as §1

[7] = tested on: Coniophora puteana BAM 15; assay: Stick test on treated Scots Pine; assay type: cell-based; details: 3 weeks exposure
Description: as §1

[8] = tested on: Chaetomium globosum ATCC 6205; assay: Stick test on treated Scots Pine; assay type: cell-based; details: 3 weeks exposure
Description: as §1

[9] = tested on: Coriolus versicolor CTB 863A; assay: Stick test on treated Scots Pine; assay type: cell-based; details: 3 weeks exposure
Description: as §1

[10] = tested on: Cladosporium cladosporioides IHEM 3795; assay: Stick test on treated Scots Pine; assay type: cell-based; details: 3 weeks exposure
Description: as §1

[11] = tested on: Aspergillus niger CBS 554.65; assay: Stick test on treated Scots Pine; assay type: cell-based; details: 3 weeks exposure
Description: as §1

[12] = tested on: Aspergillus niger CBS 554.65 (An); assay: Poison plate assay; assay type: cell-based; details: CBS554, 168 h, evaluated after one week
[13] = tested on: Chaetomium globosum CEB 1218.2 (Cg); assay: Poison plate assay; assay type: cell-based; design: key: When no fungal growth was observed, the abbreviation “ng” was used; details: evaluated after one week
[14] = tested on: Humicola grisea MG 28 (Hg); assay: Poison plate assay; assay type: cell-based; details: 168 h, evaluated after one week

Row | SMILES | MIC ([2]; medium CDA) [mg/L] | MIC ([2]; medium GA) [mg/L] | MIC ([2]; medium GGA) [mg/L] | Threshold value, H. grisea ([3]; medium GA) | Threshold value, H. grisea ([3]; medium PDA) | Threshold value, A. pullulans ([4]; medium GA) | Threshold value, A. pullulans ([4]; medium PDA) [ppm] | Threshold value, T. viride ([5]; medium GA) [ppm] | Threshold value, T. viride ([5]; medium PDA) [ppm] | Threshold value, T. sp. ([6]; medium GA) [ppm] | Threshold value, T. sp. ([6]; medium PDA) [ppm] | Threshold value, C. puteana ([7]; medium GA) | Threshold value, C. puteana ([7]; medium PDA) [ppm] | Threshold value, C. globosum ([8]; medium GA) | Threshold value, C. globosum ([8]; medium PDA) | Threshold value, C. versicolor ([9]; medium GA) [ppm] | Threshold value, C. versicolor ([9]; medium PDA) [ppm] | Threshold value, C. cladosporioides ([10]; medium GA) | Threshold value, C. cladosporioides ([10]; medium PDA) [ppm] | Threshold value, A. niger ([11]; medium GA) [ppm] | further results
1 | COC(=O)Nc1nc2ccccc2[nH]1 [carbendazim] |  |  |  |  |  |  |  |  |  |  |  |  |  |  |  |  |  |  |  |  | Control of Aspergillus spp. infection [1]: ineffective
2 | Cc1cc(C2CC2)nc(Nc2ccccc2)n1 [cyprodinil, 4-cyclopropyl-6-methyl-N-phenyl-2-pyrimidinamine] | 5 (≈ 22.2 µM) | 10 (≈ 44.4 µM) | 5 (≈ 22.2 µM) | 200-400 ppm | 800-1600 ppm | 3200-6400 ppm | >6400 | >6400 | >6400 | >6400 | >6400 | 3200-6400 ppm | >6400 | 100-200 ppm | 1600-3200 ppm | >6400 | >6400 | 800-1600 ppm | >6400 | >6400 | Threshold value, A. niger ([11]; medium PDA): >6400 ppm; MIC ([12]; medium CDA): < 0.6 mg/L; MIC ([12]; medium GA): < 0.6 mg/L; MIC ([12]; medium GGA): < 0.6 mg/L; MIC value, Cg ([13]; medium CDA): ng; MIC value, Cg ([13]; medium GA): ng; MIC value, Cg ([13]; medium GGA): ng; MIC ([14]; medium CDA): 10 mg/L (≈ 44.4 µM); MIC ([14]; medium GA): 10 mg/L (≈ 44.4 µM); MIC ([14]; medium GGA): 20 mg/L (≈ 88.8 µM)
3 | CC#Cc1cc(C)nc(Nc2ccccc2)n1 [mepanipyrim, 4-methyl-6-(prop-1-ynyl)-N-phenyl-2-pyrimidinamine] | 10 (≈ 44.8 µM) | 20 (≈ 89.6 µM) | 20 (≈ 89.6 µM) | 200-400 ppm | >6400 ppm | >6400 ppm | >6400 | >6400 | >6400 | >6400 | >6400 | >6400 ppm | >6400 | 200-400 ppm | >6400 ppm | >6400 | >6400 | >6400 ppm | >6400 | >6400 | Threshold value, A. niger ([11]; medium PDA): 1600-3200 ppm; MIC ([12]; medium CDA): < 0.6 mg/L; MIC ([12]; medium GA): < 0.6 mg/L; MIC ([12]; medium GGA): < 0.6 mg/L; MIC value, Cg ([13]; medium CDA): ng; MIC value, Cg ([13]; medium GA): ng; MIC value, Cg ([13]; medium GGA): ng; MIC ([14]; medium CDA): 10 mg/L (≈ 44.8 µM); MIC ([14]; medium GA): 20 mg/L (≈ 89.6 µM); MIC ([14]; medium GGA): 20 mg/L (≈ 89.6 µM)
4 | Cc1cc(C)nc(Nc2ccccc2)n1 [pyrimethanil, 4,6-dimethyl-N-phenyl-2-pyrimidinamine] | 20 (≈ 100 µM) | 20 (≈ 100 µM) | 20 (≈ 100 µM) | 800-1600 ppm | 1600-3200 ppm | 1600-3200 ppm | >6400 | >6400 | >6400 | >6400 | >6400 | >6400 ppm | >6400 | 800-1600 ppm | >6400 ppm | >6400 | >6400 | 1600-3200 ppm | >6400 | >6400 | Threshold value, A. niger ([11]; medium PDA): >6400 ppm; MIC ([12]; medium CDA): < 0.6 mg/L; MIC ([12]; medium GA): < 0.6 mg/L; MIC ([12]; medium GGA): 20 mg/L (≈ 100 µM); MIC value, Cg ([13]; medium CDA): ng; MIC value, Cg ([13]; medium GA): ng; MIC value, Cg ([13]; medium GGA): ng; MIC ([14]; medium CDA): > 20 mg/L; MIC ([14]; medium GA): > 20 mg/L; MIC ([14]; medium GGA): > 20 mg/L
